Tests used:
[1] = system: rumen fluid; assay: L(+)-Lactic acid production in in vitro rumen fluid fermentation; format: cell-based, steer; design: Lactic acid production rate: unit not given here
Procedure: (§1) Two separate fermentation models were used to evaluate effects of laidlomycin and laidlomycin phenylcarbamate upon volatile fatty acids (VFA) and lactic acid production. Test compounds were solubilized in absolute ethanol at concentrations of 1 mg/ml and were serially diluted twofold in absolute ethanol through six additional concentrations. Aliquots of 200 μl were transferred to 18×150 mm test tubes, which were used as incubation vessels, and the ethanol was evaporated.
(§2) For both fermentation models rumen fluid from a rumen-fistulated steer, consuming a 100% alfalfa hay diet, was obtained before the morning feeding. The fluid was strained through four layers of cheesecloth, mixed with an equal volume of CO2 -saturated buffer, and 10 ml was transferred to each of the incubation vessels. All tubes were fitted with gas-release stoppers under an atmosphere of CO2 and were incubated in a shaking waterbath at 39° C. […] This medium, designed to be microbiologically nonselective, encouraged VFA production with no accumulation of lactic acid. Buffer used to study lactic acid accumulation (table 1) contained 150 mmol of glucose/liter and had little buffering capacity. This medium favored growth of lactic acid-producing bacteria and allowed rapid production of lactic acid coupled with a precipitous drop in pH from pH 6.2 to less than pH 5 during the course of an incubation.
(§3) Fermentation was terminated at 9 h for the VFA fermentations and at 5.5 h for the lactic acid fermentations by addition of 2 ml of 25% metaphosphoric acid to the incubation tubes. Aliquots were frozen overnight, thawed, centrifuged at 30,000 × g for 10 min and the resulting supernatants analyzed for either L(+)-lactic acid or VFA. The L(+)-lactic acid was analyzed via a specific enzymatic assay in which the concentration of lactic acid in the fermentation broth was quantified by the increase in absorbance of light at 340 nm when nicotinamide adenine dinucleotide was reduced by lactic acid with the aid of L(+)-lactic dehydrogenase. VFA were analyzed via gas chromatography using a Varian chromatograph equipped with a flame ionization detector. Acids were separated on a glass column (0.64×182.9 cm) packed with 10% SP-1200/1% H3 PO4 on Chromosorb-WAW®, 80-100 mesh. This column was obtained pre-packed from Supelco, Inc., Bellefont, Pennsylvania. Chromatographic conditions included a column temperature of 145° C., an injector temperature of 190° C., a detector temperature of 190° C., a carrier gas flow of 45 ml/min and an injection volume of 1 μl.
(§4) Net production rates of all acids were calculated by subtracting the concentration of acids in the incubation fluid before incubation from the concentration determined in each tube after incubation. Molar proportions of acetic, propionic, and butyric acids produced were calculated by dividing the production rate of individual acids by the sum of the production rates of the three acids. Data were analyzed by analysis of variance (SAS, 1979). Comparisons (Duncan's multiple range test) of individual means were made when treatment effects (P<0.05) were indicated.

[2] = Stability in soybean millrun feed premix at 60° C.; format: physicochemical
Procedure: These materials were then stored at 60° C. and analyzed for starting material at one week. The premix composition is given in Table 5 and the stability data in Table 6.

[3] = system: rumen fluid; assay: Propionic acid production (VFA) in in vitro rumen fluid fermentation; format: cell-based, steer; design: Propionic acid production rate: unit not given here
Procedure: as §1, §2, §3, §4

[4] = system: Eimeria acervulina and Eimeria maxima; assay: Anticoccidial activity in broiler chicks challenged with Eimeria acervulina and Eimeria maxima; format: in vivo; settings: for Feed efficiency, feed/gain: 7 d; for Feed consumption / Gain / Final weight: cage of 12 chicks; for Final weight / Lesion scores, middle intestine / Lesion scores, upper intestine: 7 days after challenge; for Lesion scores, middle intestine / Lesion scores, upper intestine: scale 0 (least) to 4 (most severe)
From the text: Broiler chicks were reared, 12 per cage, in wire-floored battery cages under conditions which prevented extraneous coccidial infections. All chicks received a nonmedicated starter diet ad libitum until 8 days of age. From 8 days of age until the end of the study, chicks received the test diets which contained either O, 99, 121, 143 or 165 ppm of laidlomycin phenylcarbamate per kg of feed. Three replicate pens per treatment were used for all levels of experimental compounds tested.
At 10 days of age, birds were orally challenged with 200,000 oocycts of the coccidia, Eimeria acervulina, and 20,000 oocysts of Eimeria maxima per bird. The birds were weighed immediately preceding the coccidial challenge and again 7 days later. At 7 days following coccidial challenge, all birds were killed and lesions in the upper and middle sections of the intestinal tracts of six preselected birds per cage were scored on a scale of 0 to 4 based upon their number and severity. Feed present at the time of coccidial challenge and remaining 7 days later was used to determine the effects of compounds upon total feed consumption and feed efficiency.

[5] = Stability at 60° C. in methanol-water, acetate buffer; format: physicochemical
Procedure: Laidlomycin phenylcarbamate, laidlomycin isopopylcarbamate and two laidlomycin esters were prepared and their relative stability at 60° C. methanol-water, acetate buffer was determined. A complete list of the esters and carbamates which were tested under these conditions follows: […]

[6] = in comparison with laidlomycin acylates
[7] = all non-zero concentrations, vs unmedicated

## CCC(=O)OC(C(C)C(=O)O)C(C)C1OC2(CCC(C)(C3CCC(C)(C4OC(C5OC(O)(COC(=O)Nc6ccccc6)C(C)CC5C)CC4C)O3)O2)CC(O)C1C (stereo not drawn) [Laidlomycin phenylcarbamate, laidlomycin phenylcarbamate]
[1]
  Lactic acid suppression (in words): surprisingly and unexpectedly high
[1]; 0.31 μg/ml, 5.5 h
  Lactic acid production rate: 28.4
[1]; 0.31 μg/ml, 5.5 h, read-out: Lactic acid production, percentage of control
  activity at 0.31 µg/mL: 102%
[1]; 0.62 μg/ml, 5.5 h
  Lactic acid production rate: 27.7
[1]; 0.62 μg/ml, 5.5 h, read-out: Lactic acid production, percentage of control
  activity at 0.62 µg/mL: 99%
[1]; 1.25 μg/ml, 5.5 h
  Lactic acid production rate: 15.6
[1]; 1.25 μg/ml, 5.5 h, read-out: Lactic acid production, percentage of control
  activity at 1.25 µg/mL: 56%
[1]; 2.50 μg/ml, 5.5 h
  Lactic acid production rate: 6.1
  Lactic acid production, percentage of control: 21 % of control
[1]; 2.50 μg/ml, 5.5 h, read-out: Lactic acid production, percentage of control
  activity at 2.5 µg/mL: 21%
[1]; 5.00 μg/ml, 5.5 h
  Lactic acid production rate: 3.8
[1]; 5.00 μg/ml, 5.5 h, read-out: Lactic acid production, percentage of control
  activity at 5 µg/mL: 13%
[1]; 10.00 μg/ml, 5.5 h
  Lactic acid production rate: 4.0
[1]; 10.00 μg/ml, 5.5 h, read-out: Lactic acid production, percentage of control
  activity at 10 µg/mL: 14%
[1]; 20.00 μg/ml, 5.5 h
  Lactic acid production rate: 3.8
[1]; 20.00 μg/ml, 5.5 h, read-out: Lactic acid production, percentage of control
  activity at 20 µg/mL: 13%
[1]; over all concentrations tested
  Inhibition of lactic acid production relative to laidlomycin: superior to laidlomycin (P<0.05)
[2]; [6]
  Stability in feed premixes (in words): highly stable
[2]; soybean millrun feed premix, 60° C., one week, soybean millrun premix, 10% (w/w)
  remaining at 168 h: 100%
[3]
  Propionate production enhancement (in words): surprisingly and unexpectedly high
[3]; 0.31 μg/ml, 9 h
  Propionic acid production rate: 22.8
[3]; 0.62 μg/ml, 9 h
  Propionic acid production rate: 23.4
[3]; 1.25 μg/ml, 9 h
  Propionic acid production rate: 25.2
[3]; 2.50 μg/ml, 9 h
  Propionic acid production rate: 25.7
[3]; 5.00 μg/ml, 9 h
  Propionic acid production rate: 26.9
[3]; 10.00 μg/ml, 9 h
  Propionic acid production rate: 27.0
[3]; 20.00 μg/ml, 9 h
  Propionic acid production rate: 28.2
[3]; 20.00 μg/ml, 9 h, 540 min
  Propionic acid production, percentage of control: 133 % of control
[3]; 9 h, 0.31 μg/ml, 9 h, read-out: Propionic acid production, percentage of control
  activity at 0.31 µg/mL: 107%
[3]; 9 h, 1.25 μg/ml, 9 h, read-out: Propionic acid production, percentage of control
  activity at 1.25 µg/mL: 118%
[3]; 9 h, 2.50 μg/ml, 9 h, read-out: Propionic acid production, percentage of control
  activity at 2.5 µg/mL: 121%
[3]; 9 h, 5.00 μg/ml, 9 h, read-out: Propionic acid production, percentage of control
  activity at 5 µg/mL: 126%
[3]; 9 h, 10.00 μg/ml, 9 h, read-out: Propionic acid production, percentage of control
  activity at 10 µg/mL: 127%
[3]; 9 h, 20.00 μg/ml, 9 h, read-out: Propionic acid production, percentage of control
  activity at 20 µg/mL: > 130%
[3]; 9 h, read-out: Propionic acid production, percentage of control, 0.62 μg/ml, 9 h
  activity at 0.62 µg/mL: 110%
[3]; over all concentrations
  Propionic acid production enhancement relative to laidlomycin: more potent than laidlomycin (P<0.05)
[4]; 99 mg/kg of feed
  Feed efficiency, feed/gain: 2.21
  Feed consumption: 3.40 kg/7 d
  Gain: 1.54 kg/7 d
  Final weight: 3.86 kg
  Lesion scores, middle intestine: 1.43
  Lesion scores, upper intestine: 1.20
[4]; 121 mg/kg of feed
  Feed efficiency, feed/gain: 2.16
  Feed consumption: 3.19 kg/7 d
  Gain: 1.47 kg/7 d
  Final weight: 3.72 kg
  Lesion scores, middle intestine: 1.57
  Lesion scores, upper intestine: 1.23
[4]; 143 mg/kg of feed
  Feed efficiency, feed/gain: 2.19
  Feed consumption: 3.46 kg/7 d
  Gain: 1.58 kg/7 d
  Final weight: 3.97 kg
  Lesion scores, middle intestine: 1.47
  Lesion scores, upper intestine: 0.50
[4]; 165 mg/kg of feed
  Feed efficiency, feed/gain: 1.84
  Feed consumption: 3.47 kg/7 d
  Gain: 1.89 kg/7 d
  Final weight: 4.21 kg
  Lesion scores, middle intestine: 0.70
  Lesion scores, upper intestine: 0.66
[4]; all non-zero concentrations tested
  Protection against coccidiosis: protection against coccidiosis was afforded by all non-zero concentrations
[4]; [7]
  Lesion scores in the upper and middle intestines (in words): greatly reduced lesion scores in the upper and middle intestines
  Quantity of feed required per unit of gain (in words): halved the quantity of feed required per unit of gain
  Weight gain (in words): doubled weight gain
[5]; 60° C., methanol-water, acetate buffer, read-out: t1/2 (converted)
  half-life: 32.7 days
[5]; [6]
  Stability in solution (in words): highly stable
